Calls of active or inactive are those of the source. The calls are words filed in the database; no cut-off is given here. Residues, ends and D or L forms follow the SMILES beside them. *: point of attachment. X6 = O=C(CCC*)NCc1ccc([N+](=O)[O-])cc1; X10 = O=C(O)CCCNC(=O)CCC*; X7 = O=C(CCC*)NCc1ccccc1; X4 = O=C(O)CCNC(=O)CCC*; X8 = O=C(O)CNC(=O)CCC*; X11 = CNC(=O)CCC*; X9 = CCNC(=O)CCC*; X5 = NC(=O)CCC*
Columns and labels:
[1] = biological target: NAD-dependent protein deacylase sirtuin-6 (Homo sapiens, UniProt Q8N6T7); assay: Inhibition of human SIRT6 (1 to 294 residues) expressed in Escherichia coli Rosetta (DE3) at 250 uM using H3K9AcWW as substrate preincubated for 15 mins followed by substrate addition measured after 1 hr by HPLC analysis relative to control
[2] = biological target: T1, NAD-dependent protein deacetylase sirtuin-2 (Homo sapiens) (UniProt Q8IXJ6); assay: Inhibition of human N-terminal His6-SUMO-tagged SIRT2 (38 to 356 residues) expressed in Escherichia coli BL21 at 250 uM using H3K9AcWW as substrate preincubated for 15 mins followed by substrate addition measured after 1 hr by HPLC analysis relative to control
T1 sequence (whole entry): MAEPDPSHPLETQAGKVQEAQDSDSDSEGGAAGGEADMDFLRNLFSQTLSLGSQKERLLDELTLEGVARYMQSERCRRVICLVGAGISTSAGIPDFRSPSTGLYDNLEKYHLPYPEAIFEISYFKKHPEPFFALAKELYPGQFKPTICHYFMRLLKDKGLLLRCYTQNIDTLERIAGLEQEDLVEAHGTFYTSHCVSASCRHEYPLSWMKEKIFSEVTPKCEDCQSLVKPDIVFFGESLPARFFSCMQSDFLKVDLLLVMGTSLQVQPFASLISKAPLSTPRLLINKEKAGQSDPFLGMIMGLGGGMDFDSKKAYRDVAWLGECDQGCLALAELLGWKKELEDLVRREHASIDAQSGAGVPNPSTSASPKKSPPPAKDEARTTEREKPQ

[3] = biological target: T2, NAD-dependent protein deacetylase sirtuin-1 (Homo sapiens) (UniProt Q96EB6); assay: Inhibition of human SIRT1 expressed in Escherichia coli BL21 at 250 uM using H3K9AcWW as substrate preincubated for 15 mins followed by substrate addition measured after 1 hr by HPLC analysis relative to control
T2 sequence (whole entry): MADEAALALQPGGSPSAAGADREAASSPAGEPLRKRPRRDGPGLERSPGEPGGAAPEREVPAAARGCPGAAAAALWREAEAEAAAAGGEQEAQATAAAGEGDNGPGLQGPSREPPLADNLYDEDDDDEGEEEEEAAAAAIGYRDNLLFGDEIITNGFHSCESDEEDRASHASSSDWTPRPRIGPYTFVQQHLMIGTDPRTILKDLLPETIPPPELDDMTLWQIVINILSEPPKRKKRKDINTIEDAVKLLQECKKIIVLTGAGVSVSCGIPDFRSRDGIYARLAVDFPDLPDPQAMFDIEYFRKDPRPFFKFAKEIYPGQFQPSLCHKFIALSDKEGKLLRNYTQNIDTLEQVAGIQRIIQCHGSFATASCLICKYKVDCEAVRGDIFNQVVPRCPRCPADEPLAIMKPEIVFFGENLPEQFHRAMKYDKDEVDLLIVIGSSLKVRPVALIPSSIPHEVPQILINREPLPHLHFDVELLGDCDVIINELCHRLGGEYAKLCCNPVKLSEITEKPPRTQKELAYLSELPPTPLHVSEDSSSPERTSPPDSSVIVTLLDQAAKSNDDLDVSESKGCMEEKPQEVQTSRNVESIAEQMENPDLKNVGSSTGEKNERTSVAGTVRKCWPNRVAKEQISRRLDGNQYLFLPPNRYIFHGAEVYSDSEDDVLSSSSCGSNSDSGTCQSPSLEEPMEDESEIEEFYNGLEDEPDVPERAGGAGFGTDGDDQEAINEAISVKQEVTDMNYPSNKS

[4] = biological target: NAD-dependent protein deacylase sirtuin-5, mitochondrial (Homo sapiens, UniProt Q9NXA8); assay: Inhibition of human SIRT5 expressed in Escherichia coli BL21 at 250 uM using H3K9AcWW as substrate preincubated for 15 mins followed by substrate addition measured after 1 hr by HPLC analysis relative to control
Chain of NAD-dependent protein deacylase sirtuin-5, mitochondrial (Q9NXA8 37-310 limits assumed): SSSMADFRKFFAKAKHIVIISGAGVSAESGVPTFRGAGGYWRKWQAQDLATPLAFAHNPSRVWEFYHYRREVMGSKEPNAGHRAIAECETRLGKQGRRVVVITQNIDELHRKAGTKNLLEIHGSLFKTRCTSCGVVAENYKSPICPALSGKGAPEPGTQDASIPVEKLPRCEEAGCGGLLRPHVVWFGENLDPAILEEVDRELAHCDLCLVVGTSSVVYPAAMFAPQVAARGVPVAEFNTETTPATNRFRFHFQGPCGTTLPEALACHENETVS

Chain of NAD-dependent protein deacylase sirtuin-6 (Q8N6T7 whole entry, the tested form may be a part): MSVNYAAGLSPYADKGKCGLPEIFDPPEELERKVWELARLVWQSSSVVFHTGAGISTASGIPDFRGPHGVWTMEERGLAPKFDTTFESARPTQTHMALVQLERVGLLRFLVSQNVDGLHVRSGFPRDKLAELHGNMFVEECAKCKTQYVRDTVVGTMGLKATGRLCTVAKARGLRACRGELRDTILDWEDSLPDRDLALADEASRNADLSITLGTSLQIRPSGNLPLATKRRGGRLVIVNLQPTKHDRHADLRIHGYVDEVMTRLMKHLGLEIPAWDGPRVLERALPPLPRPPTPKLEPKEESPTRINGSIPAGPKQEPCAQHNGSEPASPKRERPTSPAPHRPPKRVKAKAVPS

SMILES	inhibition [1]	inhibition [2]	inhibition [3] [%]	inhibition [4]
NC(=O)c1cccnc1	76%	83%	73	69%
C[C@H](NC(=O)[C@@H](NC(=O)[C@H](CCC(N)=O)NC(=O)[C@@H](N)CCCCN)[C@@H](C)O)C(=O)N[C@@H](CCCNC(=N)N)C(=O)N[C@@H](CSCCCC(=O)NCCC(=O)O)C(=O)N[C@@H](CO)C(=O)N[C@H](C(=O)NCC(=O)NCC(=O)N[C@@H](CCCCN)C(=O)O)[C@@H](C)O (H-KQTARC(X4)STGGK-OH)	54%	45%	66	15%
C[C@H](NC(=O)[C@@H](NC(=O)[C@H](CCC(N)=O)NC(=O)[C@@H](N)CCCCN)[C@@H](C)O)C(=O)N[C@@H](CCCNC(=N)N)C(=O)N[C@@H](CSCCCC(N)=O)C(=O)N[C@@H](CO)C(=O)N[C@H](C(=O)NCC(=O)NCC(=O)N[C@@H](CCCCN)C(=O)O)[C@@H](C)O (H-KQTARC(X5)STGGK-OH)	inactive	27%	40	18%
C[C@H](NC(=O)[C@@H](NC(=O)[C@H](CCC(N)=O)NC(=O)[C@@H](N)CCCCN)[C@@H](C)O)C(=O)N[C@@H](CCCNC(=N)N)C(=O)N[C@@H](CSCCCC(=O)NCc1ccc([N+](=O)[O-])cc1)C(=O)N[C@@H](CO)C(=O)N[C@H](C(=O)NCC(=O)NCC(=O)N[C@@H](CCCCN)C(=O)O)[C@@H](C)O (H-KQTARC(X6)STGGK-OH)	26%	26%	38	inactive
C[C@H](NC(=O)[C@@H](NC(=O)[C@H](CCC(N)=O)NC(=O)[C@@H](N)CCCCN)[C@@H](C)O)C(=O)N[C@@H](CCCNC(=N)N)C(=O)N[C@@H](CSCCCC(=O)NCc1ccccc1)C(=O)N[C@@H](CO)C(=O)N[C@H](C(=O)NCC(=O)NCC(=O)N[C@@H](CCCCN)C(=O)O)[C@@H](C)O (H-KQTARC(X7)STGGK-OH)	28%	inactive	30	inactive
C[C@H](NC(=O)[C@@H](NC(=O)[C@H](CCC(N)=O)NC(=O)[C@@H](N)CCCCN)[C@@H](C)O)C(=O)N[C@@H](CCCNC(=N)N)C(=O)N[C@@H](CSCCCC(=O)NCC(=O)O)C(=O)N[C@@H](CO)C(=O)N[C@H](C(=O)NCC(=O)NCC(=O)N[C@@H](CCCCN)C(=O)O)[C@@H](C)O (H-KQTARC(X8)STGGK-OH)	25%	28%	60	20%
CCNC(=O)CCCSC[C@H](NC(=O)[C@H](CCCNC(=N)N)NC(=O)[C@H](C)NC(=O)[C@@H](NC(=O)[C@H](CCC(N)=O)NC(=O)[C@@H](N)CCCCN)[C@@H](C)O)C(=O)N[C@@H](CO)C(=O)N[C@H](C(=O)NCC(=O)NCC(=O)N[C@@H](CCCCN)C(=O)O)[C@@H](C)O (H-KQTARC(X9)STGGK-OH)	inactive	13%	35	inactive
C[C@H](NC(=O)[C@@H](NC(=O)[C@H](CCC(N)=O)NC(=O)[C@@H](N)CCCCN)[C@@H](C)O)C(=O)N[C@@H](CCCNC(=N)N)C(=O)N[C@@H](CSCCCC(=O)NCCCC(=O)O)C(=O)N[C@@H](CO)C(=O)N[C@H](C(=O)NCC(=O)NCC(=O)N[C@@H](CCCCN)C(=O)O)[C@@H](C)O (H-KQTARC(X10)STGGK-OH)	43%	33%	23	16%
CNC(=O)CCCSC[C@H](NC(=O)[C@H](CCCNC(=N)N)NC(=O)[C@H](C)NC(=O)[C@@H](NC(=O)[C@H](CCC(N)=O)NC(=O)[C@@H](N)CCCCN)[C@@H](C)O)C(=O)N[C@@H](CO)C(=O)N[C@H](C(=O)NCC(=O)NCC(=O)N[C@@H](CCCCN)C(=O)O)[C@@H](C)O (H-KQTARC(X11)STGGK-OH)	inactive	inactive	34	10%

Source: ChEMBL document CHEMBL4118276, “The mimics of Nε-acyl-lysine derived from cysteine as sirtuin inhibitors” (Bioorg Med Chem Lett, 2018)
